From US12503448B2, “Antibacterial and antiparasitic quinoxaline-2,3-diamine derivatives” (University College Cardiff Consultants Limited, priority 2019, dated 2025)
≈ marks a conversion by molar mass, not a printed value. Read-outs that look alike come from different tables or passages of the source.

Assays:
[1] = tested on: S. mansoni schistosomula; assay: 72 hours schistosomula drug screen; assay type: cell-based, Schistosoma mansoni; details: for Selectivity Index Schistosomula: HepG2 CC50 over schistosomula EC50; for EC50: Schistosoma mansoni
Description: Biological Screening 72 Hours Schistosomula Drug Screen […] G. Colley, […], Schistosoma mansoni: simplified method for the production of schistosomules., Exp. Parasitol. 35 (1974) 44-51. Newly transformed schistosomula were prepared for 72 hour high throughput screening (HTS) in 384-well black-sided microtiter plates (Perkin Elmer, MA, USA) as described in M. Nur-e-alam, M. Yousaf, […]. Bari, H. A. Ghabbour, […]. Ho, A. J. […], Neoclerodane Diterpenoids from […], Teucrium […]. Nat. […] The data obtained in this manner is shown in Table 1 in the columns labelled “Phenotype”, “Motility” and “Schistosomula average”.

[2] = tested on: S. mansoni adult worms; assay: Adult worm drug screen (WHO scoring, WormassayGP2); assay type: cell-based, Schistosoma mansoni; details: for Selectivity Index Adult: HepG2 CC50 over adult worm EC50; for EC50: Schistosoma mansoni, adult worms
From the text: Mice (MF-1 mice, Harlan, UK), infected 7 weeks previously with 180 cercaria, were euthanised with an intraperitoneal injection of phenobarbital/heparin solution. Adult worms were recovered by perfusion of the portal system and subjected to drug screening as previously described in Padalino G, Ferla S, Brancale A, Chalmers I W, Hoffmann K F. Int J Parasitol Drugs Drug Resist. 2018 December; 8(3):559-570; in Whiteland H L, Chakroborty A, Forde-Thomas J E, Crusco A, Cookson A, Hollinshead J, Fenn C A, Bartholomew B, Holdsworth P A, Fisher M, Nash R J, Hoffmann K F. Int J Parasitol Drugs Drug Resist. 2018 December; 8(3):465-474; and in Crusco A, Bordoni C, Chakroborty A, Whatley K C L, Whiteland H, Westwell A D, Hoffmann K F. Eur J Med Chem. 2018 May 25; 152:87-100. The data obtained in this manner is shown in Table 1 in the columns labelled “Adult worm”.
Regarding the quantification of drug treatment on adult worms (e.g. decreased activity, paralysis or sluggishness), two different approaches were used, as described below. Where egg deposition was noticed, eggs were removed and counted using a Sedgewick rafter slide.
Adult worms were scored using the standardized microscopic WHO-TDR scoring system previously described by Ramirez, B., Bickle, Q., Yousif, F., Fakorede, F., Mouries, M.-A., Nwaka, S. in Schistosomes: Challenges in compound screening, Expert Opin Drug Discov. 2007 October; 2(s1): S53-61. This scoring system (0-4) identifies changes in worm movement and is defined according to the following scoring matrix: 0=no movement, 1=no movement with visible gut peristalsis, 2=minimal movement (occasional movement from anterior or posterior end of the worm), 3=slow continuous movement and 4=normal movement.
A digital image processing-based system was also used to assess parasite motility after drug treatment and is a modification of methods previously described by Marcellino C., Gut, J., Lim, K., Singh R., McKerrow, L. and Sakanari, J. WormAssay: a novel computer application for whole-plate motion-based screening of macroscopic parasites. PLoS Negl Trop Dis. 2012 January:6(1):e1494. This allowed for objective verification of the WHO method described above. The data obtained with this quantification method is shown in Table 1 in the columns labelled “Adult worm”.

[3] = tested on: F. hepatica newly excysted juveniles (NEJs); assay: Newly excysted juveniles (NEJs) drug screen; assay type: cell-based, Fasciola hepatica; design: scale not given here; details: 10 μM, 72 h; higher score indicates lower worm activity
Description: Newly Excysted Juveniles (NEJs) Drug Screen
F. hepatica (Italian strain) metacercariae were obtained from Ridgeway Research, Gloucestershire, UK and stored at 4° C. Newly excysted juveniles (NEJs) from metacercariae were produced based on an optimisation introduced to the excystment method published by Dixon et al. and Wilson et al (Dixon, K. E., The physiology of excystment of the metacercaria of Fasciola hepática L. Parasitology, 1966, 56, 431-456.; Wilson, L. R., Good, R. T., Panaccio, M., Wijffels, G. L., Sandeman, R. M., Spithill, T. W, Fasciola hepatica: Characterization and Cloning of the Major Cathepsin B Protease Secreted by Newly Excysted Juvenile Liver Fluke. Experimental Parasitology 1998, 88, 85-94).
After excystment, NEJs were distributed into a 24 well tissue culture plate at a density of 25 parasites per well containing 1 mL of pre-warmed NEJs culture media. Compounds were added to respective wells and NEJ/compound co-cultures were incubated at 37° C. in an atmosphere containing 5% CO2 for 72 hours at a final concentration of 10 μM.
F. hepatica NEJs (25 per well) were incubated with the three compounds at a concentration of 10 μM (in 0.1% DMSO) and cultured for 72 hrs at 37° C. in an atmosphere containing 5% CO2. Control wells (25 NEJs per well) included those containing 0.1% DMSO (solvent) and RMPI (media) as negative controls or 10 μM Triclabendazole (0.1% DMSO, as positive control, labelled “Tbz” (Comp. 3). After 72 hrs, all NEJs were scored for phenotype and motility metrics. For each treatment, an average of both phenotype and motility score was calculated based on the individual parasite scores (across two independent replicates), wherein a higher score indicates lower worm activity. SD is reported on the bar chart.

[4] = tested on: E. coli ATCC 25922; assay: In vitro antibacterial activity; assay type: cell-based; details: Escherichia coli, ATCC25922
[5] = tested on: S. aureus ATCC 29213; assay: In vitro antibacterial activity; assay type: cell-based; details: Staphylococcus aureus, ATCC29213
[6] = tested on: M. smegmatis mc^2 15 ATCC 700084; assay: In vitro antibacterial activity; assay type: cell-based, Mycobacterium smegmatis; details: Mycolicibacterium smegmatis, ATCC700084
[7] = tested on: Pseudomonas aeruginosa ATCC 27853; assay: In vitro antibacterial activity; assay type: cell-based; details: ATCC27853
[8] = tested on: S. epidermidis NTCT11077; assay: In vitro antibacterial activity; assay type: cell-based; details: Staphylococcus epidermidis
[9] = tested on: B. cereus; assay: In vitro antibacterial activity; assay type: cell-based; details: Bacillus cereus
[10] = Mouse pharmacokinetics, oral cassette dosing; details: male, C57/BL6, mouse, plasma, po, 2.5 mg/kg
Description: Non-compartmental mouse pharmacokinetics (Male C57/BL6 Mouse, Fasted; 3 mice per group) were determined after oral administration of a nominal dose of 2.5 mg/kg of these formulations in cassettes (5 compounds/group) according to the protocols employed by WuXi (https://www.wuxiapptec.com; the CRO that conducted these studies).

[11] = Semi thermodynamic solubility; details: thermodynamic from solid
[12] = Metabolic stability in mouse liver microsomes; details: liver microsomes
[13] = tested on: MRSA USA 300; assay: In vitro antibacterial activity; assay type: cell-based; details: Staphylococcus aureus
[14] = tested on: MRSA ATCC 33591; assay: In vitro antibacterial activity; assay type: cell-based; details: Staphylococcus aureus
[15] = tested on: MRSA EM RSA; assay: In vitro antibacterial activity; assay type: cell-based; details: Staphylococcus aureus
From the text: In vitro Determination of Antibacterial Activity
Scientific Reports 8 (1), 2018. Bacterial strains of Enterococcus faecalis—ATCC 29212, NCTC 12201, ATCC 51299; Streptococcus pneumoniae—ATCC 49619, 18778, 21394, 21395; Haemophilus influenza—ATCC 49766, 18391, 17428; Staphylococcus aureus—NCTC 12493, ATCC BAA-077, ATCC 700698, 11051; used for testing the compounds, as previously described in “Clinical laboratory testing and in vitro diagnostics test systems—Susceptibility testing of infectious agents and evaluation of performance of antimicrobial susceptibility devices—Part 1: Reference methods for testing the in vitro activity of antimicrobial agentes against bacteria involved in infectious diseases, ISO/FDIS 20776-1:2006(E). All the procedures were carried out in a biosafety containment level 2.

[16] = schistosomula, 72 hour culture, read-out: EC50 Motility
[17] = schistosomula, 72 hour culture, read-out: EC50 Phenotype
[18] = average of phenotype and motility, read-out: EC50 Schistosomula average
[19] = E. coli ATCC 25922, read-out: MIC90
[20] = M. smegmatis mc^2 15 ATCC 700084, read-out: MIC90

SMILES	Selectivity Index Schistosomula [1]	EC50 [1, 16] [nM]	EC50 [1, 17] [nM]	Selectivity Index Adult [2]	EC50 [2] [nM]	Motility (M) Mean score [3]	Phenotype (P) Mean score [3]	MIC90 [4] [µg/mL]	MIC90 [5] [µg/mL]	MIC90 [6] [µg/mL]	MIC90 ([7]; Pseudomonas aeruginosa) [µg/mL]	MIC90 ([8]; NTCT11077) [µg/mL]	MIC90 [9] [µg/mL]	EC50 [1, 18] [nM]	further results
CCCCCC(=O)Nc1ccc2nc(Nc3ccc(Cl)c(Cl)c3)c(Nc3ccc(Cl)c(Cl)c3)nc2c1 [Compound 18, N-(2,3-bis((3,4-dichlorophenyl)amino)quinoxalin-6-yl)hexanamide]	46	1800	1020	203	320	4.05	4.09	> 125	62.5 (≈ 111 µM)	> 125	> 125	> 125	125 (≈ 222 µM)		AUC(0-t) [10]: 68.2 ng·h/mL; Cmax [10]: 16.4 ng/mL; MRT last [10]: 3.86 h; Tmax [10]: 4 h; solubility thermodynamic [11]: 15.5 µM (≈ 8.73 µg/mL); half-life at 1 μM [12]: 0.618 h; microsomal CLint at 1 μM [12]: 37.4 µL/min/mg
Clc1ccc(Nc2nc3ccc(N4CCCC4)cc3nc2Nc2ccc(Cl)c(Cl)c2)cc1Cl [Compound 16, N^2, N^3-bis(3,4-dichlorophenyl)-6-(pyrrolidin-1-yl)quinoxaline-2,3-diamine]		> 10000	> 10000			2.84	2.95	> 125	15.6 (≈ 30.1 µM)	> 125	> 125	> 125	> 125		MIC90 [13]: 62.5 µg/mL (≈ 120 µM); MIC90 [14]: 31.2 µg/mL (≈ 60.2 µM); MIC90 [15]: 62.5 µg/mL (≈ 120 µM)
O=[N+]([O-])c1ccc2nc(NCc3ccccc3)c(NCc3ccccc3)nc2c1 [Compound 13, N^2, N^3-dibenzyl-6-nitroquinoxaline-2,3-diamine]	4	2640	3190			3.14	3.14	> 125	> 125	> 125				2920	
CSc1nc2cc(Cl)c(Oc3cccc(Cl)c3Cl)cc2[nH]1 [Comp. 3, triclabendazole, reference compound]						4.72	4.72								
O=[N+]([O-])c1ccc2nc(NCCc3ccccc3)c(NCCc3ccccc3)nc2c1 [Compound 14, 6-nitro-N^2, N^3-diphenethylquinoxaline-2,3-diamine]		1470	2200			4.00	4.27								MIC90 [4, 19]: > 125 µg/mL; MIC90 ([5]; S. aureus ATCC 29213, read-out: MIC90): > 125 µg/mL; MIC90 [6, 20]: 31.2 µg/mL (≈ 75.6 µM)
COC(=O)C1=C(C)NC(C)=C(C(=O)OCCN(C)Cc2ccccc2)C1c1cccc([N+](=O)[O-])c1 (stereo not shown) [Nicardipine, reference compound]															solubility thermodynamic [11]: 35.4 µM (≈ 17 µg/mL)
CC(=O)Nc1ccc2nc(Nc3ccc(Cl)c(Cl)c3)c(Nc3ccc(Cl)c(Cl)c3)nc2c1 [Compound 17, N-(2,3-bis((3,4-dichlorophenyl)amino)quinoxalin-6-yl)acetamide]	4	2090	2600	12	700			> 125	62.5 (≈ 123 µM)	> 125	> 125	< 62.5	< 62.5	2350	
O=[N+]([O-])c1ccc2nc(Nc3cccc(C(F)(F)F)c3)c(Nc3cccc(C(F)(F)F)c3)nc2c1 [Compound 10, 6-nitro-N^2, N^3-bis(3-(trifluoromethyl)phenyl)quinoxaline-2,3-diamine]	12	570		836	7	2.71	2.76		7.81 (≈ 15.8 µM)					480	MIC90 [4, 19]: > 125 µg/mL; MIC90 [6, 20]: > 125 µg/mL; MIC90 [13]: > 125 µg/mL; MIC90 [14]: > 125 µg/mL; MIC90 [15]: > 125 µg/mL; MIC90 ([7]; Pseudomonas aeruginosa ATCC 27853, read-out: MIC90): > 125 µg/mL; MIC90 ([8]; S. epidermidis NTCT11077, read-out: MIC90): > 125 µg/mL; MIC90 ([9]; B. cereus, read-out: MIC90): > 125 µg/mL
Nc1ccc2nc(Nc3ccc(Cl)c(Cl)c3)c(Nc3ccc(Cl)c(Cl)c3)nc2c1 [Compound 15, N^2, N^3-bis(3,4-dichlorophenyl)quinoxaline-2,3,6-triamine]	7	3250	3510			4.86	5.09								
